In patent US8609836B2, “4-aryl-2-anilino-pyrimidines” (Janssen Pharmaceutica NV, priority 2008, dated 2013):

Legend:
[1] = target: CDK4/CyclinD1 (h) (Homo sapiens, UniProt P11802); assay: CDK4/CyclinD1 human kinase inhibition, SPA with GST-pRb substrate; assay type: biochemical; conditions: read-out: CDK4 pIC50 (converted)
Outline: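 Scintillation proximity format: after EDTA/Triton stop containing glutathione SPA beads, 33P incorporation was counted. The reaction ran 60 min at room temperature in Hepes pH 7.5 with NaF, MgCl2, DTT, using 2.5 μg/ml human CDK4/CyclinD1, 40 μg/ml GST-pRb substrate and 2 nM [γ-33P]ATP.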

[2] = tested on: HCT-116; assay: Cellular proliferation assay (Alamar blue), HCT-116; assay type: cell-based; conditions: Homo sapiens, 10% FCS, 72 hours with compound, Alamar blue 4 h
Outline: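 Growth inhibition measured after 72 h incubation with compound, following 24 h pre-culture at 37° C, 5% CO2 with 10% FCS. Resazurin-based read-out at 544/590 nm after 4 h (HCT-116), 6 h (U87-MG) or 24 h (A2780, MDA-MB-231); results relative to control.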

[3] = target: PLK4 (h) (Homo sapiens, UniProt O00444); assay: PLK-4 human kinase inhibition, scintillation proximity assay (SPA); assay type: biochemical; conditions: read-out: PLK4 pIC50 (converted)
[4] = target: CDK1/CyclinB (h) (Homo sapiens, UniProt P06493); assay: CDK1/CyclinB human kinase inhibition, Invitrogen's FRET assay (Z'lyte); assay type: biochemical; conditions: read-out: CDK1 pIC50 (converted)
Outline: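 Read-out is the 460 nm/538 nm emission ratio (390 nm excitation) after a 60 min protease development step. Before that, 10 μM ATP and 2 μM Z'lyte Ser/Thr peptide 12 react 60 min at room temperature with 0.2 μg/ml human CDK1/CyclinB in Hepes pH 7.5 containing MgCl2, EGTA and Brij-35.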

[5] = target: PLK1 T210D (h) (Homo sapiens, UniProt P53350, T210D); assay: PLK1 human kinase inhibition, SPA; assay type: biochemical; conditions: read-out: PLK1 pIC50 (converted)
Outline: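 Kinase incubated 40 min at room temperature with 0.1 μM ATP (2 nM [γ-33P]ATP tracer), 2 μM biotinylated peptide, pH 8.0 Hepes buffer with 2 mM MnCl2 and 1 mM DTT; enzyme at 0.125 ng/ml. Stopped with EDTA; 33P-peptide bound to streptavidin scintillant beads and imaged.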

[6] = tested on: H1299; assay: Cellular proliferation assay (Alamar blue), H1299; assay type: cell-based; conditions: Homo sapiens, NCI-H1299; 10% FCS; 72 hours with compound; Alamar blue 4 h
Outline: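 This proliferation assay on NCI-H1299 cells used an initial 24-hour compound-free incubation after seeding, followed by 72 hours of compound treatment with 10% FCS serum at 37° C. and 5% (v/v) CO2. Viable cells were quantified by a 4 h Alamar blue incubation and fluorescent plate reading at 544 nm/590 nm, and effects were expressed relative to control cells.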

[7] = target: AuroraB (h) (Homo sapiens, UniProt Q96GD4); assay: Aurora-B human kinase inhibition, SPA; assay type: biochemical; conditions: read-out: AuroraB pIC50 (converted)
Outline: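 AuroraB (0.5 μg/ml) phosphorylates 3 μM biotin-peptide using 0.5 μM ATP spiked with 33P-ATP in Hepes pH 7.5 with 3 mM MgCl2 and MnCl2, for 60 min at room temperature. EDTA stop solution carries streptavidin scintillant beads, and the captured radiolabel is imaged.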

[8] = target: GSK3β (h) (Homo sapiens, UniProt P49841); assay: GSK-3β human kinase inhibition, SPA; assay type: biochemical; conditions: read-out: GSK3b pIC50 (converted)
Outline: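 Radiometric: 33P-labelled peptide captured on streptavidin SPA beads after EDTA stop and imaged on Leadseeker. Reaction ran 1 h at RT, 1 μM cold ATP with 2 nM [γ-33P]ATP, 1 μM biotin-peptide substrate, human GSK3β 1 μg/ml, pH 7.4 Tris buffer.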

Sequence of PLK1 T210D (h) (P53350 whole entry T210D): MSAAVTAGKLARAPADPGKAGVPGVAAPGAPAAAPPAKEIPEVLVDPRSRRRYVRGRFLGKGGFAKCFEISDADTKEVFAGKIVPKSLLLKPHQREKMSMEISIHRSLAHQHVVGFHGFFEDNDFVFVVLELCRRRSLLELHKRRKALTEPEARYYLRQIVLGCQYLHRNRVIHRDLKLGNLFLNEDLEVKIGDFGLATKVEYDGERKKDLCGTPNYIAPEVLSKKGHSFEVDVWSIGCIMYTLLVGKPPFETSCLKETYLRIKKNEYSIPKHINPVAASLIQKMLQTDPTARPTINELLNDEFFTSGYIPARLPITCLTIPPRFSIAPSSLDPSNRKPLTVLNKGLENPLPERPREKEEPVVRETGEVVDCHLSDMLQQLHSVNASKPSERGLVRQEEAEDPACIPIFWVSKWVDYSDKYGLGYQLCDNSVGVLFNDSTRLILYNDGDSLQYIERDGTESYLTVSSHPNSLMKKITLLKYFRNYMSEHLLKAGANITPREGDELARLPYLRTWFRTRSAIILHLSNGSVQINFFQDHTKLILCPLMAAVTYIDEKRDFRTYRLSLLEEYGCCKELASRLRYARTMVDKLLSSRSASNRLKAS
Sequence of CDK4/CyclinD1 (h) (P11802 whole entry): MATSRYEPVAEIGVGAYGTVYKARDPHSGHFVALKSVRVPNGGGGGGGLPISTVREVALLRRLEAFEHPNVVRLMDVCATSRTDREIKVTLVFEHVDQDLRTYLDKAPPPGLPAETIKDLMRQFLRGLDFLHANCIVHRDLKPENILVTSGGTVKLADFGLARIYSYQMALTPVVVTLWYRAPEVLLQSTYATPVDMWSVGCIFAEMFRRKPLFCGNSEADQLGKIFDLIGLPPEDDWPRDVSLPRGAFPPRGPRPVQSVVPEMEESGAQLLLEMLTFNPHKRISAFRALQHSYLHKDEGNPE
Sequence of CDK4/CyclinD1 (h) (P24385 whole entry partner): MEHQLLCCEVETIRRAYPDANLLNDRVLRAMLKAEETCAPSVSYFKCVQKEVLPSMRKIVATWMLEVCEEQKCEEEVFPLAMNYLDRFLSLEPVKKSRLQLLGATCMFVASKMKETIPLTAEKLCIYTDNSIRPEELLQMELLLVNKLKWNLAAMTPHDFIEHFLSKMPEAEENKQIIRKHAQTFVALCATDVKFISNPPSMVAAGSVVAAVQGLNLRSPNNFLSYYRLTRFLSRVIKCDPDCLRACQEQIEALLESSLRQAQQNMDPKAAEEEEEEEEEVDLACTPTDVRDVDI
Sequence of PLK4 (h) (O00444 whole entry): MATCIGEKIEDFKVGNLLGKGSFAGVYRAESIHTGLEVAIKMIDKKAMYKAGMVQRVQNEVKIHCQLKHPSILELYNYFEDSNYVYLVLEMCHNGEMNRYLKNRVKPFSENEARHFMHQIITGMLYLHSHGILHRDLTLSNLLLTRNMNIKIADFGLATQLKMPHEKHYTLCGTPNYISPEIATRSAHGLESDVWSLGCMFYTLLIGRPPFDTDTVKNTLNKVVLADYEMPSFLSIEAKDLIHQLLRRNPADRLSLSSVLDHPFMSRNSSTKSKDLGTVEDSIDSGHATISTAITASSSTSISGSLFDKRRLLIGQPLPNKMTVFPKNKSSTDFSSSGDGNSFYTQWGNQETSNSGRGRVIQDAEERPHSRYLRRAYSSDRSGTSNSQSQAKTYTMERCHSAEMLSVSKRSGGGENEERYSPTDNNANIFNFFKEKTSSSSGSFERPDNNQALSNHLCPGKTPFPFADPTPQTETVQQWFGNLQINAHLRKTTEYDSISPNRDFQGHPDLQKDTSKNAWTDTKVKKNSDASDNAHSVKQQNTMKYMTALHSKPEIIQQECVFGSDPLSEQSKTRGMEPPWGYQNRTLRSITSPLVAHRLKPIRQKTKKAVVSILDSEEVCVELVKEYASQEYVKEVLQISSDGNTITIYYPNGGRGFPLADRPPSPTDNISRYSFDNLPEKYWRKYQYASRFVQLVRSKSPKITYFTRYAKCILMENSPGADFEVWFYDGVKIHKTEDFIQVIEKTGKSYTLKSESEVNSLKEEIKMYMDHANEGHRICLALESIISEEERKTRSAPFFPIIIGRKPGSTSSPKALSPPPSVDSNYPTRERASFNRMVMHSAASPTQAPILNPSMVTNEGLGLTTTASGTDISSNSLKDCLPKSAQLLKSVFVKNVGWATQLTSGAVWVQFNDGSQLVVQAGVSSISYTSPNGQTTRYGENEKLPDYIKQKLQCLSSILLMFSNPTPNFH
Sequence of CDK1/CyclinB (h) (P06493 whole entry): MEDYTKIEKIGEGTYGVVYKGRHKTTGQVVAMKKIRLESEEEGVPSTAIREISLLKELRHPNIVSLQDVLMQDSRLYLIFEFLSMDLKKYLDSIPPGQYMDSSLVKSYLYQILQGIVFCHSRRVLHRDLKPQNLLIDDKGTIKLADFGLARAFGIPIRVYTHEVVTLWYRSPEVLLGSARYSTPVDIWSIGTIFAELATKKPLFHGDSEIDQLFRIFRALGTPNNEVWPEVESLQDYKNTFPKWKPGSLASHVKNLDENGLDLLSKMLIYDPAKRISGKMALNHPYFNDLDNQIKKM
Sequence of CDK1/CyclinB (h) (P14635 whole entry partner): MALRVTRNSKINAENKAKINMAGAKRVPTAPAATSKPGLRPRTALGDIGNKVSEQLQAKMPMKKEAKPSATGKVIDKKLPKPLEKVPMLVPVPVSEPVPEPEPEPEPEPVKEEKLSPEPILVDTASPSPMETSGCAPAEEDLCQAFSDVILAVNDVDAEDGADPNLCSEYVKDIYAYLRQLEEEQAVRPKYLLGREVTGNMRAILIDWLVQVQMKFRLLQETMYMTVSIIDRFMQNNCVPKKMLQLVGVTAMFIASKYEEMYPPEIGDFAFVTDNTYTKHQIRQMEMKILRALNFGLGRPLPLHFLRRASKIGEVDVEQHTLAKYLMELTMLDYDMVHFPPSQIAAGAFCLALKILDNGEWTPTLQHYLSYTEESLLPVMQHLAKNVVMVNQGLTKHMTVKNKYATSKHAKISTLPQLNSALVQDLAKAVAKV
Sequence of GSK3β (h) (P49841 whole entry): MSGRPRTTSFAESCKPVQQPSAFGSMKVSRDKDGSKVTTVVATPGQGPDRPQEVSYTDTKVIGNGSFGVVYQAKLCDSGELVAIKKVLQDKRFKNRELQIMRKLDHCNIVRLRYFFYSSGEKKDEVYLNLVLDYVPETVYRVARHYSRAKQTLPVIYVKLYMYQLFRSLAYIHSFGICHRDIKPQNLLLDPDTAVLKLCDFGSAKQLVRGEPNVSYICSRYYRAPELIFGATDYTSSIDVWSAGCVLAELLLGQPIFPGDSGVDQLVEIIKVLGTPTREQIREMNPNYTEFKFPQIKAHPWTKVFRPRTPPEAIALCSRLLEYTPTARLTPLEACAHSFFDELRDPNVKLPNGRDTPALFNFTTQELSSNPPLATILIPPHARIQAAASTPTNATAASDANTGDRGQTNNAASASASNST
Sequence of AuroraB (h) (Q96GD4 whole entry): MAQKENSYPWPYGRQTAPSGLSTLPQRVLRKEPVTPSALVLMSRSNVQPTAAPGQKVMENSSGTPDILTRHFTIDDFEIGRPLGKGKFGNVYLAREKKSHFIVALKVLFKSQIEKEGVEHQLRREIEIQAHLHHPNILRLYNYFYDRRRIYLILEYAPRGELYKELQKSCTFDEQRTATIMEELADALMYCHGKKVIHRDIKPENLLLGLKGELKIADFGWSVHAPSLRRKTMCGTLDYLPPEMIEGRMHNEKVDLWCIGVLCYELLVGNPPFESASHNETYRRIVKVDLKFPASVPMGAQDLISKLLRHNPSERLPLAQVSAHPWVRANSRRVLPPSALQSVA

Row | IC50 [1] [µM] | IC50 [2] [µM] | IC50 [3] [µM] | IC50 [4] [µM] | IC50 [5] [µM] | IC50 [6] [µM] | IC50 [7] [µM] | IC50 [8] [µM] | SMILES
1 | 1.29 | > 10 | 6.61 | 7.24 | > 10 | > 10 | > 10 | 3.72 | O=C1NCc2cccc(c2)-c2ccnc(n2)Nc2ccc(N3CCOCC3)c(c2)CN2CCC1CC2 [Compound 95]
2 | 0.2 | 0.724 | 1.15 | 0.151 | > 10 | 2.95 | > 10 | 0.0759 | C[C@@H]1NCCc2cccc(c2)-c2ccnc(n2)Nc2ccc(N3CCOCC3)c(c2)CNC1=O [Compound 100]
3 | 2.57 | 2.69 | 1.82 | > 10 | > 10 | 6.61 | > 10 | 0.182 | C[C@@H]1NCc2cccc(c2)-c2ccnc(n2)Nc2ccc(N3CCOCC3)c(c2)CNC1=O [Compound 101]
4 | 8.13 | 1.29 | 0.794 | 2.57 | > 10 | 1.15 | > 10 | 0.24 | O=C1CN2CCN(CC2)Cc2cc(ccc2N2CCOCC2)Nc2nccc(n2)-c2cccc(c2)OCCN1 [Compound 102]
5 | > 10 | > 10 | 0.447 | > 10 | > 10 | > 10 | 4.79 | > 10 | COc1ccc2cc1CN(C)CCNC(=O)[C@H](CO)NCc1cc(cc(N3CCOCC3)c1)Nc1nccc-2n1 [Compound 105]
6 | > 10 | 4.37 | 0.589 | > 10 | > 10 | > 10 | 2.04 | 6.31 | COc1cc2cc(c1)Nc1nccc(n1)-c1ccc(OC)c(c1)CN(C)CCNC(=O)[C@H](CO)NC2 [Compound 107]
7 | > 10 | > 10 | 3.24 | > 10 | > 10 | > 10 | 6.61 | > 10 | COc1ccc2cc1CN(C)CCCNC(=O)[C@H](CO)NCc1cccc(c1)Nc1nccc-2n1 [Compound 118]
8 | > 10 | 2.29 | 3.89 | > 10 | > 10 | > 10 | > 10 | 6.03 | COc1ccc2cc1CN(C)CCNC(=O)[C@H](CO)NCc1cc(Br)cc(c1)Nc1nccc-2n1 [Compound 119]
9 | 1.7 | 2.88 | 8.71 | 0.372 | > 10 | > 10 | > 10 | 0.457 | O=C1NCc2cccc(c2)-c2ccnc(n2)Nc2cccc(c2)CN2CCC1CC2 [Compound 124]
10 | > 10 | 5.25 | 1.26 | > 10 | > 10 | > 10 | > 10 | 4.37 | CC(C)Nc1cc2cc(c1)Nc1nccc(n1)-c1ccc(cc1)CN(C)CCCNC(=O)CN1CCN(CC1)C2 [Compound 131]
11 | > 10 | 5.89 | 1.41 | > 10 | > 10 | > 10 | > 10 | 2 | COc1cc2cc(c1)Nc1nccc(n1)-c1ccc(cc1)CN(C)CCNC(=O)CN1CCN(CC1)C2 [Compound 132]
12 | > 10 | 5.25 | 1.62 | 4.79 | > 10 | > 10 | > 10 | 1.32 | CN1CCNC(=O)CN2CCN(CC2)Cc2cccc(c2)Nc2nccc(n2)-c2ccc(cc2)C1 [Compound 134]
13 | 0.0724 | 0.117 | 0.813 | 0.00363 | > 10 | 0.832 | 11 | 0.117 | O=C1NCc2cc(ccc2N2CCOCC2)Nc2nccc(n2)-c2cccc(c2)CCCN2CCC[C@@H]12 [Compound 149]
14 | > 10 | > 10 | 0.692 | > 10 | > 10 | > 10 | 7.94 | 5.13 | COc1ccc2cc1CN(C)CCNC(=O)[C@@H]1CCCN1Cc1cc(cc(N3CCOCC3)c1)Nc1nccc-2n1 [Compound 152]

Row | SMILES | IC50 [1] [µM] | IC50 [2] [µM] | IC50 [3] [µM] | IC50 [4] [µM] | IC50 [5] [µM] | IC50 [6] [µM] | IC50 [7] [µM] | IC50 [8] [µM]
15 | COc1cc2cc(c1)Nc1nccc(n1)-c1ccc(cc1)CN(C)CCNC(=O)[C@H](CO)NC2 [Compound 109] | > 10 | 2.69 | 0.741 | > 10 | > 10 | > 10 | 7.41 | 4.79
16 | CN1CCNC(=O)[C@H](CO)NCc2cccc(c2)Nc2nccc(n2)-c2ccc(cc2)C1 [Compound 114] | > 10 | > 10 | 1.2 | > 10 | > 10 | > 10 | 7.08 | 2.82
17 | COc1cc2cc(c1)Nc1nccc(n1)-c1ccc(OC)c(c1)CN(C)CCNC(=O)CN1CCN(CC1)C2 [Compound 127] | > 10 | 6.46 | 0.813 | > 10 | > 10 | > 10 | 2 | 5.01
18 | COc1ccc2cc1CN(C)CCNC(=O)CN1CCN(CC1)Cc1cc(NCCc3ccccc3)cc(c1)Nc1nccc-2n1 [Compound 138] | > 10 | 3.09 | 2.14 | > 10 | > 10 | 10 | > 10 | > 10
19 | COc1cc2cc(c1)Nc1nccc(n1)-c1ccc(OC)c(c1)CN(C)CCCNC(=O)CN1CCN(CC1)C2 [Compound 140] | > 10 | 1.55 | 2.69 | > 10 | > 10 | > 10 | > 10 | 7.41
20 | CC(C)Nc1cc2cc(c1)Nc1nccc(n1)-c1ccc(cc1)CN(C)CCCNC(=O)[C@@H]1CCCN1C2 [Compound 151] | > 10 | 3.55 | 0.646 | > 10 | > 10 | > 10 | > 10 | > 10
21 | CN1CCNC(=O)[C@@H]2CCCN2Cc2cc(cc(N3CCOCC3)c2)Nc2nccc(n2)-c2ccc(cc2)C1 [Compound 154] | > 10 | > 10 | 0.813 | > 10 | > 10 | > 10 | > 10 | > 10
22 | COc1cc2cc(c1)Nc1nccc(n1)-c1ccc(cc1)CN(C)CCCNC(=O)[C@@H]1CCCN1C2 [Compound 156] | > 10 | > 10 | 0.912 | > 10 | > 10 | > 10 | > 10 | > 10
23 | O=C1NCCNCc2ccc(cc2)-c2ccnc(n2)Nc2ccc(N3CCOCC3)c(c2)CN2CCC[C@@H]12 [Compound 157] | > 10 | 6.46 | 1.07 | > 10 | > 10 | 5.13 | 9.55 | 6.61
24 | COc1cc2cc(c1)Nc1nccc(n1)-c1ccc(cc1)CN(C)CCNC(=O)[C@@H]1CCCN1C2 [Compound 158] | > 10 | > 10 | 1.15 | 8.71 | > 10 | > 10 | > 10 | > 10
